Values of other authors, collected in patent publication US20060177499A1, “Method for the manufacture of a pharmaceutical composition in the form of tablets containing a fibrate and tablets obtained according to the method” (priority 2003, published 2006).

Conditions: long-term treatment; e.g. rhabdomyolysis, asthenia, increase of transaminases, hepatic toxicity

## CC(C)OC(=O)C(C)(C)Oc1ccc(C(=O)c2ccc(Cl)cc2)cc1 [fenofibrate, Isopropyl 2-[4-(4-chlorobenzoyl)phenoxy]-2-methylpropionate]
  adverse effects: not completely devoid of adverse effects
